Test results from paper PMC10799935, “Discovery of a peripheral 5HT2A antagonist as a clinical candidate for metabolic dysfunction-associated steatohepatitis” (Nature Communications, 2024).
Several values for one entry are separate records, joined by “and”; a condition that tells them apart may be missing. Equal entries are not always repeated. Where two headings read alike, the source gives them in different places.

How the values were obtained:
CYP2C19 = CYP2C19 (Homo sapiens, UniProt P33261); assay: in vitro
5HT1A (h) = target: T1, 5HT1A (h) (Homo sapiens, UniProt P08908); assay: 5HT subtype antagonism assay (Eurofins Cerep): 5HT1A; assay type: cell-based; conditions: concentration not given
T1 construct: host or cells: BA/F3 cells

[1] = 3weeks
5HT2C (h) = 5HT2C (h) (Homo sapiens, UniProt P28335); assay: 5HT subtype antagonism assay (Eurofins Cerep): 5HT2C; assay type: cell-based
5HT2A = 5HT2A (Homo sapiens, UniProt P28223); assay: Human 5HT2A inhibition assay (FLIPR calcium 6, 5HT stimulus, stably transfected HEK293 cells); assay type: cell-based; design: expressed in transfected cells; host or cells: HEK293; conditions: HEK293, 1 μM; read-out: % Inhibition at 1 μM (SD)
[2] = system: CDAHFD-fed C57BL/6 J mice; assay: CDAHFD mice: food intake; assay type: in vivo, mouse; conditions: amongst CDAHFD-fed groups, 12 weeks
Text: C57BL/6 J male mice were purchased from the Japan SLC. Inc (Hamamatsu, Japan). Mice (5 weeks old) were fed Teklad Certitied Irradiated Global 18% protein rodent diet purchased from Dooyeol Biotech Co. Ltd (Seoul, South Korea) during the acclimation period. The liver fibrosis/inflammation-induced groups were CDAHFD-fed (A06071302, Research diet). […] All animal experiments complied with the relevant ethical regulations.
Supplementary Figure 4. Food intake. Food intake of vehicle and CDAHFD-fed mice, two-way
ANOVA with the Holm-Sidak post hoc test. The data are presented as mean ± SD (n = 2 cages per
(1 picture or pasted object on this page, not shown here)

[3] = Pharmacokinetic study in rats; assay type: in vivo, Sprague-Dawley rats; conditions: rat
Description: The experimental protocol for this study was approved by the IACUC of KPC Co., Ltd. (No. KPC IACUC-P203046; Beagle dogs) or QuBEST BIO (No.QBIACUC-A20131). All relevant ethical guidelines were followed. Beagle male dogs (11 ~ 20 months old) were purchased from ORIENT BIO Inc. and were housed in the barrier animal facility of KPC Co., Ltd. under a regular light-dark cycle (12-hour light/12-hour dark) at 21.1–23.4°C with 55.3–72.2% humidity. Food (standard irradiated pelleted commercial laboratory diet, Cargill Agri Purina, 300 g/dog.day) and water were provided ad libitum. All study dogs were returned to the laboratory colony after the study without any euthanasia. Sprague-Dawley male rats (7 weeks old) were purchased from SAMTAKOBIOKOREA, Inc. and were housed in the barrier animal facility of Nonclinical Research Center, QuBEST BIO under a regular light-dark cycle (12-hour light/12-hour dark) at 19.7–22.7°C with 54.5–65.6% humidity. Food (standard irradiated pelleted commercial laboratory diet, Purina Rodent Chow, 38057) and water were provided ad libitum. All study rats were euthanized by CO2 gas upon study completion.
Blood samples were collected at the scheduled times up to 24 h post-dose (IV: 0.083, 0.25, 0.5, 1, 2, 4, 8, 12 and 24 h post-dose, PO: 0.25, 0.5, 1, 2, 4, 8, 12 and 24 h post-dose). Determination of compound 11c in plasma was performed by UHPLC-MS/MS. Pharmacokinetic parameters were calculated by noncompartmental analysis using Phoenix® WinNonlin® (Ver. 8.3‘, Certara).

HFD-fed C57BL/6J mice = assay: DIO mice: body composition (fat and lean mass); assay type: in vivo, mouse; design: Body Mass RAW Fluid / Body Mass RAW Fat body mass / Body Mass RAW Lean body mass / Fat Body: Mean Diff., Vehicle vs. 11c / Lean Body: Mean Diff., Vehicle vs. 11c: unit not given here; conditions: for Fat Body: Mean Diff., Vehicle vs. 11c / Lean Body: Mean Diff., Vehicle vs. 11c: Dunnett's test; for Body Mass Analysis (%) Fat body mass / Body Mass Analysis (%) Lean body mass / Body Mass RAW Fat body mass / Body Mass RAW Lean body mass / Body Weight (body mass sheet) / Body Mass Analysis (%) Fluid / Body Mass RAW Fluid: DIO mice, individual mice and group Mean; for Body Weight (body mass sheet): in g (unit assumed)
Text: For in vivo efficacy in DIO models and CDAHFD models, the experimental protocol for this study was approved by the Institutional Animal Care and Use Committee (IACUC) at the Korea Advanced Institute of Science and Technology (No. KA2023-027-v2) or Kyungpook National University (No. KNU-20200134). All relevant ethical guidelines were followed. C57BL/6 J male mice (11 weeks old) were purchased from the Charles River Japan and were housed in a specific pathogen-free barrier facility under a regular light-dark cycle (12-hour light/12-hour dark) at 24°C with 40–60% humidity. Food (standard chow diet, Envigo, 2018S) and water were provided ad libitum. […] Mice were euthanized by the method of cervical dislocation. The measurement of lean and fat mass in live mice was performed by a body composition analyzer (LF50 BCA-analyzer, Bruker). After 6 h of fasting, mice were sacrificed, and tissue samples were obtained.

[4] = male, Sprague-Dawley, plasma, 5 mg/kg, IV (5 mpk)

Sequence of 5HT2C (h) (P28335 33-458): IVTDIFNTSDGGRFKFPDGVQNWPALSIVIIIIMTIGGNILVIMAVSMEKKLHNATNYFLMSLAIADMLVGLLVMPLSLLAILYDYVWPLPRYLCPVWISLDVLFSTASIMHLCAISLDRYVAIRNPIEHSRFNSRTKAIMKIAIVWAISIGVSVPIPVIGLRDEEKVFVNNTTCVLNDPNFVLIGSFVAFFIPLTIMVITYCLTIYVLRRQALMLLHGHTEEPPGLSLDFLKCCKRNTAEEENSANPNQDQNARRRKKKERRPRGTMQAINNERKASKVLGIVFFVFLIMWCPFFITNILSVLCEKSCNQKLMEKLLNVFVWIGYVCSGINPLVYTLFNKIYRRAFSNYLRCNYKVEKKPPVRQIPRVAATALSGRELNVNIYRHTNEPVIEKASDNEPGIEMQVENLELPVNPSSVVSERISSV
Sequence of CYP2C19 (P33261 whole entry): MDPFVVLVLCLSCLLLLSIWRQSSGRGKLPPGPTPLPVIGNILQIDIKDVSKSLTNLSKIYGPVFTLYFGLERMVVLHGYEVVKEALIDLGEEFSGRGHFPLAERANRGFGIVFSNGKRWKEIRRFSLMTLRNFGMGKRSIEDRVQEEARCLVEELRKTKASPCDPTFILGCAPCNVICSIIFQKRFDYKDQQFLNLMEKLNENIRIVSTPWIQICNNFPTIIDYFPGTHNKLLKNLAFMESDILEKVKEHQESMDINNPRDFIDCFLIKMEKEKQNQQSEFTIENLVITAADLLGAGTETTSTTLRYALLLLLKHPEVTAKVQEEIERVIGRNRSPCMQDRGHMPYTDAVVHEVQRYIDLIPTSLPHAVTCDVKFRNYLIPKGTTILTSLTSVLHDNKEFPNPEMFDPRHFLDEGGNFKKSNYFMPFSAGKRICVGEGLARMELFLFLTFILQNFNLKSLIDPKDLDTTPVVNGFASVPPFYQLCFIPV
T1 sequence (P08908 whole entry): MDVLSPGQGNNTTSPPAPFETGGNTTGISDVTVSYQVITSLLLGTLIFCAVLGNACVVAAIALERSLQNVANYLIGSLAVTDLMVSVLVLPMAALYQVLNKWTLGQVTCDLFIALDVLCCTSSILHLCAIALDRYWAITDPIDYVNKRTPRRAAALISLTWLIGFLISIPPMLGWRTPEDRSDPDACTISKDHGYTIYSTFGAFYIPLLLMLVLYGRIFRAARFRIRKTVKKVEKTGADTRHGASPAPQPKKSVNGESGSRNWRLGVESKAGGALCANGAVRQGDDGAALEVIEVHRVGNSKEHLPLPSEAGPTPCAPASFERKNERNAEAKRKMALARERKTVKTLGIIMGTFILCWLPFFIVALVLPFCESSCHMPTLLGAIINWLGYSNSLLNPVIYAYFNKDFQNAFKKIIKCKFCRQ
Sequence of 5HT2A (P28223 whole entry): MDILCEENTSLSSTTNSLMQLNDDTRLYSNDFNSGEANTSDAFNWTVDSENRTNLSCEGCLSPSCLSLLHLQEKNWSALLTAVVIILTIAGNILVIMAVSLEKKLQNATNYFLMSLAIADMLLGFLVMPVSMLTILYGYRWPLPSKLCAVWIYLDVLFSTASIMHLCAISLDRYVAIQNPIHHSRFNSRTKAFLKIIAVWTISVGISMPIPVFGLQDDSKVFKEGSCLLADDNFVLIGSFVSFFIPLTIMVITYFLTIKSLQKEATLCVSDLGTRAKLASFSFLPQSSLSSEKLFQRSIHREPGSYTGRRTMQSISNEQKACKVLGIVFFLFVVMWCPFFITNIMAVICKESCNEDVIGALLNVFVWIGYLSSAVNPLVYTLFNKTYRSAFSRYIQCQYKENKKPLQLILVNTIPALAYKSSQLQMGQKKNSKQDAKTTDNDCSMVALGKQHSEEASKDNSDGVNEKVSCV

With `Cc1nc2n(c(=O)c1CCN1CCC(=C3c4ccc(Cl)cc4CCc4cccnc43)CC1)CCCC2O` (stereo not shown) [Compound 11c] the inhibition at 10 µM (CYP2C19) was 6.83%, the “Selectivity 1 A: % inhibition” value (5HT1A (h)) was 9% and the Chemical stability ([1]; 25 °C) was 99.8%. The Chemical stability ([1]; 60 °C) was 99.6%, the “Selectivity 2 C: % inhibition” value (5HT2C (h); concentration not given) was 103% and the IC50 (5HT2C (h); read-out: Selectivity 2 C: IC50) was 170 nM. For the same compound, the inhibition at 1 µM (5HT2A) was 92.56 ± 0.77%, the food intake [2] was “no significant difference” and the AUC [3, 4] was 1550 ng·h/mL. It also gave a clearance [3, 4] of 47 mL/min/kg, an AUC ([3]; male, Sprague-Dawley, plasma, 5 mg/kg, PO (5 mpk)) of 980 ng·h/mL and a bioavailability ([3]; male, Sprague-Dawley, plasma, 5 mg/kg, PO (5 mpk), read-out: F (%)) of 63%. For the same compound, the AUC ([3]; male, Sprague-Dawley, plasma, 10 mg/kg, PO (10 mpk)) was 2880 ng·h/mL, the bioavailability ([3]; male, Sprague-Dawley, plasma, 10 mg/kg, PO (10 mpk), read-out: F (%)) was 92.5% and the half-life ([3]; male, Sprague-Dawley, plasma, iv, 5 mg/kg, IV (5 mpk)) was 4.14 h. The half-life ([3]; male, Sprague-Dawley, plasma, po, 5 mg/kg, PO (5 mpk)) was 2.5 h, the half-life ([3]; male, Sprague-Dawley, plasma, po, 10 mg/kg, PO (10 mpk)) was 2.7 h and the bioavailability ([3]; male, Sprague-Dawley, plasma, po, rats (summary statement), read-out: oral bioavailability) was > 60%. For the same compound, the “V” value ([3]; IV (5 mpk)) was 8.86 L/kg, the “T1/2” value ([3]; IV (5 mpk), 5 mg/kg) was 4.4 h and the “Fat Body: Mean Diff., Vehicle vs. 11c” value (HFD-fed C57BL/6J mice; 5mpk) was 1.897. The “Lean Body: Mean Diff., Vehicle vs. 11c” value (HFD-fed C57BL/6J mice; 5mpk) was 3.43, the fat mass (HFD-fed C57BL/6J mice; 10 mpk daily oral gavage, 8 weeks, vs vehicle-treated mice) was “reduced” and the “Fat Body: Mean Diff., Vehicle vs. 11c” value (HFD-fed C57BL/6J mice; 10mpk) was 12.76. For the same compound, the “Lean Body: Mean Diff., Vehicle vs. 11c” value (HFD-fed C57BL/6J mice; 10mpk) was 4.653, the “Body Mass Analysis (%) Fat body mass” value (HFD-fed C57BL/6J mice; 5mpk, 5 mg/kg) was 34.69% and the “Body Mass Analysis (%) Lean body mass” value (HFD-fed C57BL/6J mice; 5mpk, 5 mg/kg) was 52.41%. For the same compound, the “Body Mass Analysis (%) Fat body mass” value (HFD-fed C57BL/6J mice; 5mpk, 5 mg/kg, group mean) was 34.7%, the “Body Mass Analysis (%) Lean body mass” value (HFD-fed C57BL/6J mice; 5mpk, 5 mg/kg, group mean) was 52.4% and the “Body Mass RAW Fat body mass” value (HFD-fed C57BL/6J mice; 5mpk, 5 mg/kg, group mean) was 15.9. The “Body Mass RAW Lean body mass” value (HFD-fed C57BL/6J mice; 5mpk, 5 mg/kg, group mean) was 23.8, the “Body Weight (body mass sheet)” value (HFD-fed C57BL/6J mice; 5mpk, 5 mg/kg) was 45.7 and 40.4 and 39.5 and 37 and 43.5 and 51 and 45.4 and the “Body Mass Analysis (%) Fluid” value (HFD-fed C57BL/6J mice; 5mpk, 5 mg/kg, mean) was 6.8%. The “Body Mass RAW Fluid” value (HFD-fed C57BL/6J mice; 5mpk, 5 mg/kg, mean) was 3.1, the “Body Mass Analysis (%) Fat body mass” value (HFD-fed C57BL/6J mice; 5mpk, listed as 11C, 5 mg/kg) was 42.9% and 30.1% and 27.5% and 28.0% and 34.3% and 39.1% and 41.1% and the “Body Mass Analysis (%) Fluid” value (HFD-fed C57BL/6J mice; 5mpk, listed as 11C, 5 mg/kg) was 7.2% and 5.5% and 5.6% and 5.7% and 8.1% and 8.2% and 7.4%. The “Body Mass Analysis (%) Lean body mass” value (HFD-fed C57BL/6J mice; 5mpk, listed as 11C, 5 mg/kg) was 50.9% and 41.8% and 44.8% and 51.8% and 63.0% and 63.1% and 51.4%, the “Body Mass RAW Fat body mass” value (HFD-fed C57BL/6J mice; 5mpk, listed as 11C, 5 mg/kg) was 19.5 and 15.6 and 13.7 and 11.6 and 14.0 and 17.9 and 18.8 and the “Body Mass RAW Fluid” value (HFD-fed C57BL/6J mice; 5mpk, listed as 11C, 5 mg/kg) was 3.3 and 2.8 and 2.4 and 3.7 and 3.4. For the same compound, the “Body Mass RAW Lean body mass” value (HFD-fed C57BL/6J mice; 5mpk, listed as 11C, 5 mg/kg) was 23.2 and 21.7 and 22.3 and 21.5 and 25.8 and 28.9 and 23.5, the “Body Mass Analysis (%) Fluid” value (HFD-fed C57BL/6J mice; 10mpk, 10 mg/kg) was 7.1% and 5.8% and 4.8% and 8.2% and 9.4% and the “Body Mass RAW Fat body mass” value (HFD-fed C57BL/6J mice; 10mpk, 10 mg/kg) was 8.4 and 13.9 and 12.4 and 15.4 and 9.5 and 5.7. For the same compound, the “Body Mass RAW Fluid” value (HFD-fed C57BL/6J mice; 10mpk, 10 mg/kg) was 3.2 and 3.0 and 2.4 and 3.4 and 3.9 and 2.2, the “Body Mass RAW Lean body mass” value (HFD-fed C57BL/6J mice; 10mpk, 10 mg/kg) was 22.2 and 25.2 and 20.6 and 25.5 and 23.2 and 23.1 and the “Body Mass RAW Lean body mass” value (HFD-fed C57BL/6J mice; 10mpk, 10 mg/kg, group mean) was 23.3. The “Body Weight (body mass sheet)” value (HFD-fed C57BL/6J mice; 10mpk, 10 mg/kg) was 35.7 and 43.1 and 36.3 and 45.2 and 38.2 and 33.4, the “Body Weight (body mass sheet)” value (HFD-fed C57BL/6J mice; 10mpk, 10 mg/kg, mean) was 38.7 and the “Body Mass Analysis (%) Fluid” value (HFD-fed C57BL/6J mice; 10mpk, 10 mg/kg, mean) was 6.7%. The “Body Mass RAW Fat body mass” value (HFD-fed C57BL/6J mice; 10mpk, 10 mg/kg, mean) was 10.9.
